The results in this text go back to patent publication US20220287345A1, “SOLUBILITY ENHANCEMENT OF POORLY SOLUBLE ACTIVES” (Evonik Operations GmbH, priority 2019, published 2022).

This series in a line: physchem. The conditions noted are these: for solubility: water, thermodynamic from solid. The procedure:
Analysis of the blend was done and its solubility in water was analyzed (table 3).
All the tablets prepared as shown in table 8 were analyzed in water to check whether there is an enhancement in solubility of the drug when compared to the pure form (table 9).
The compressed tablets prepared according table 13 were analyzed in water to check whether there is any enhancement in solubility of the drug when compared to the pure form (table 14).
All the blends and tablets prepared according to table 15 were analyzed in water for any enhancement in solubility of the drug when compared to the pure form.
The capsules were further analyzed for water solubility of the active ingredient.
The solution was spray dried using a spray drier (Inlet temperature: 55-60° C., Aspirator: 90-100%).

≈ marks a conversion by molar mass, not a printed value.

As to `Cc1ccc(S(=O)(=O)NC(=O)NN2CC3CCCC3C2)cc1` (centres unmarked) [Experiment C-8, Gliclazide], the concentration in solution (solubility) was 21 µg/mL (≈ 64.9 µM). Consider `COc1cc(/C=C/C(=O)CC(=O)/C=C/c2ccc(O)c(OC)c2)ccc1O` [Experiment C-4, Curcumin], for which the “Solubility of AFI/API in water” value turned out to be 0.0 µg/mL.

As for `NC(=O)N1c2ccccc2C=Cc2ccccc21` [Experiment C-9, Carbamazepine], the solubility stood at 240 µg/mL (≈ 1020 µM). `O=c1c(O)c(-c2ccc(O)c(O)c2)oc2cc(O)cc(O)c12` [Experiment C-6, Quercetin] returned a solubility of 3.6 µg/mL (≈ 11.9 µM). The compound `Cc1ccc(-c2cc(C(F)(F)F)nn2-c2ccc(S(N)(=O)=O)cc2)cc1` [Experiment C-1, Celecoxib] had a solubility of 0.1 µg/mL (≈ 0.262 µM).
